pKd: −log10 of the molar value. “Also recorded” adds a separate entry of the source.

Assay [1] has as its target T1, megalin M2 fragment (Homo sapiens, UniProt P02774+P98164).
T1 construct: megalin signal peptide (M1-G25) (N, cleaved yes); made in house
T1 sequence (P98164 1024-1429 limits assumed): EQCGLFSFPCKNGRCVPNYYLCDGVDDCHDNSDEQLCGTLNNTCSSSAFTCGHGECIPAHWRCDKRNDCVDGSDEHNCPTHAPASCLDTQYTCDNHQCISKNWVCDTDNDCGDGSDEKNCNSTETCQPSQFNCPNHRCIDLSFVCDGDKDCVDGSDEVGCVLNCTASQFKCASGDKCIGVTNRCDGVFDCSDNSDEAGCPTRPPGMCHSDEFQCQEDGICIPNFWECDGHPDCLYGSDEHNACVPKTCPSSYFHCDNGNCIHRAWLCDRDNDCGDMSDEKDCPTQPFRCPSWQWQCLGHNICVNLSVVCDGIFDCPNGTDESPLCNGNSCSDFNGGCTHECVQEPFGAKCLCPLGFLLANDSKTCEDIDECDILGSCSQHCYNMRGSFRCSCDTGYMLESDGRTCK
T1 sequence (P02774 17-474): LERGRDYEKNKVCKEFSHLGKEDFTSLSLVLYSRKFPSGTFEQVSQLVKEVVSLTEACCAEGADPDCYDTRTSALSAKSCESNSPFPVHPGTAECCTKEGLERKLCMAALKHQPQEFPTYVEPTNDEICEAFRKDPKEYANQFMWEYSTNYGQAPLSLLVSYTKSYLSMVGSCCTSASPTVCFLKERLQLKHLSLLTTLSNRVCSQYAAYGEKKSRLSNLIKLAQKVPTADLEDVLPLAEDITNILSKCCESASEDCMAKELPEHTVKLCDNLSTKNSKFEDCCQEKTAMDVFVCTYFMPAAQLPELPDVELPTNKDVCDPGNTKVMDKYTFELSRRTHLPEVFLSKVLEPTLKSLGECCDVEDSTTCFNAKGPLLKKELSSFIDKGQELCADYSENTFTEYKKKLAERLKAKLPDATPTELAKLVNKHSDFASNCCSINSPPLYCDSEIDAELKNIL
Kind of assay: Microscale thermophoresis of DBP:VD-metabolite bound by megalin M2 fragment. The class given is binding. Particulars: M2 titrated; for pKd: labelled DBP 50 nM mixed with metabolite 37.8 nM, read-out: dissociation constant Kd, megalin M2 fragment to complex DBP:vitamin D metabolite. On the procedure:
Purified megalin M2 was titrated in different concentrations. The dissociation constant Kd was calculated for every condition. The binding affinity was assessed by the dissociation constant Kd.
(§1) Microscale Thermophoresis assay. […] Parameters: laser power, 100%; LED, 80; laser on-time, 30 seconds; laser off-time, 5 seconds; temperature, 25° C. FNorm: normalized fluorescence; Kd: dissociation constant.
On the technique in general: Microscale thermophoresis detects binding through changes in fluorescence in a small temperature gradient.

The target of assay [2] is T2, DBP (Homo sapiens, UniProt P02774).
T2 sequence (P02774 17-474): T1 sequence (P02774 17-474)
Kind of assay: Microscale thermophoresis of DBP and vitamin D metabolites. The class given is binding. On the set-up: purchased Merck 345802. The settings on record: for binding affinity of vitamin D metabolite to DBP, in words: MST, comparison between metabolites; for pKd: NT-647 labelled DBP, metabolite titrated, read-out: dissociation constant Kd, DBP to vitamin D metabolite. The protocol: The binding properties of DBP and 25(OH)VD3, 25(OH)VD2, 24,25(OH)VD and 3C-epimer of 25(OH)D3 on the one hand and megalin on the other was further examined using microscale thermophoresis. […] The vitamin D metabolites were titrated with different concentrations. The dissociation constant Kd was calculated for every interaction partner. The binding affinity was assessed via the obtained dissociation constant Kd.
as §1

Assay [3] deals with T2, DBP. Particulars: cited from earlier work.
Assay [4] addresses albumin (Homo sapiens, UniProt P02768). The settings on record: cited from earlier work.

Chain of albumin (P02768 25-609, species assumed): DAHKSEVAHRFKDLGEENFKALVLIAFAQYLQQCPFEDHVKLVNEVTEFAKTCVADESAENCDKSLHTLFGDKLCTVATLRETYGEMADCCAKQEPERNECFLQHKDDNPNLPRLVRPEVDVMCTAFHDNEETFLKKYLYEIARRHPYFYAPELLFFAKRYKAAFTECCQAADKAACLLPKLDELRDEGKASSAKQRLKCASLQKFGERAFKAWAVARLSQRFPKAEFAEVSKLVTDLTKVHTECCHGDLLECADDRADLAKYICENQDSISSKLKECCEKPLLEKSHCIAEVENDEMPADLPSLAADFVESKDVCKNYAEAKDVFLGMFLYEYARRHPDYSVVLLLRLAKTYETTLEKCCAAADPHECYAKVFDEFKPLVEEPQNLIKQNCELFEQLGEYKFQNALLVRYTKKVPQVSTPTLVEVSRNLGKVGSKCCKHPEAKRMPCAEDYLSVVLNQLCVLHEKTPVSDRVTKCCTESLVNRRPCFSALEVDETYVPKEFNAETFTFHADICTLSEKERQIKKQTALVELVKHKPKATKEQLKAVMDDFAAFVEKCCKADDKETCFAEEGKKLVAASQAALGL

As usually defined, the pKd is −log10 of the Kd, conventionally taken in molar units. Regarding `C=C1CC[C@H](O)C/C1=C/C=C1\CCC[C@]2(C)[C@@H]([C@H](C)CCC(O)C(C)(C)O)CC[C@@H]12` (stereo partly drawn) [24,25(OH)VD, 24,25-dihydroxyvitamin D], the negative-log Kd (pKd) in assay [1] is 6.77. The “binding affinity of vitamin D metabolite to DBP, in words” value (“binding affinity” for short) in assay [2] was “slightly weaker; also recorded: marginally lower”.
As to `C=C1CC[C@H](O)C/C1=C/C=C1\CCC[C@]2(C)[C@@H]([C@H](C)/C=C/[C@H](C)C(C)(C)O)CC[C@@H]12` [25(OH)VD2, 25-hydroxyvitamin D2], in assay [1], the negative-log Kd (pKd) is 6.80. Moreover, in assay [2], the “binding affinity” value is “comparable to Kd of DBP-VD3” and the pKd was 8.55.
With `C=C1CC[C@H](O)C/C1=C/C=C1\CCC[C@]2(C)[C@@H]([C@H](C)CCCC(C)(C)O)CC[C@@H]12` [25(OH)VD3, 25-hydroxyvitamin D3], the pKd in assay [1] is 7.47; in assay [2], 8.73.
Regarding 25-hydroxyvitamin D [25(OH)D], the “affinity Ka for DBP” value in assay [3] was 7e+08 M⁻¹. Also, the “affinity Ka for albumin” value in assay [4] was 600000 M⁻¹.
Consider `C=C1CC[C@@H](O)C/C1=C/C=C1\CCC[C@]2(C)[C@@H]([C@H](C)CCCC(C)(C)O)CC[C@@H]12` [3C-epi25(OH)VD3, C3-epimer of 25-hydroxyvitamin D3], for which the “affinity of megalin M2 to DBP:metabolite complex, in words” value in assay [1] (labelled DBP 50 nM mixed with metabolite) is “very high affinity”. In addition, the “binding affinity” value in assay [2] is reported as “bound most strongly”; in assay [2] (listed as 3C epimer of 25(OH)D3), “high binding affinity”.

Source of the values: patent US20240319212A1, “METHOD OF MEASURING THE ENDOCYTIC VITAMIN D STATUS” (Immundiagnostik AG, priority 2018, published 2024).
